For 2 molecules, Activity and viability results are on record in ChEMBL document CHEMBL6134780, “Halogenated retinoid derivatives as dual RARα and RXRα modulators for treating acute promyelocytic leukemia cells” (Eur J Med Chem, 2024).

Activity calls are given as the source filed them. The rule behind the calls is not given here.

Experiment [1] addresses T1, Retinoic acid receptor RXR-beta (Homo sapiens) (UniProt P28702).
T1 sequence (whole entry): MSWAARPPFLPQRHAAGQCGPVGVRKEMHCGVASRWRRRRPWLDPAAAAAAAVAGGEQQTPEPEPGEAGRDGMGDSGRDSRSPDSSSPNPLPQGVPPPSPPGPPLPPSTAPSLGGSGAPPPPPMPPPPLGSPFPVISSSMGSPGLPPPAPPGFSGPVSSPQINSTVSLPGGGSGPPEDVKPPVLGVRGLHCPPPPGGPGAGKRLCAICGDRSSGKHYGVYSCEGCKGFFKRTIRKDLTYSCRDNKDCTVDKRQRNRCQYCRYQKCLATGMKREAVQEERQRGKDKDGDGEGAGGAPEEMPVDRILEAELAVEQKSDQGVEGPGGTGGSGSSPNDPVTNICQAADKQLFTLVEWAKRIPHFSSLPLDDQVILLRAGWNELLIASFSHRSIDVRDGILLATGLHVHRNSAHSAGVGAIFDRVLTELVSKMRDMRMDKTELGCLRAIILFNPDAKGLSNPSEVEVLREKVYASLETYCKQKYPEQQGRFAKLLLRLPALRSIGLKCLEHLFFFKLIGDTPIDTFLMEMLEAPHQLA
Briefly: Agonist activity at Gal4-fused full length RXRbeta LBD (unknown origin) transfected in HEK293T cells co-transfected with pG5luc reporter and Renilla-luc at 0.1 to 1 uM incubated for 12 hrs by luciferase reporter gene assay. The experiment is classed as cell-based. The following applies: dose 0.1-1 µM.

The subject of experiment [2] is ATRA-resistant NB4-LR2. The experiment in a line: Induction of cell differentiation in human ATRA-resistant NB4-LR2 cells at 0.5 uM incubated for 6 days by flow cytometric analysis. The following applies: time 6.0 day. The class given is functional, cell-based.
Experiment [3] concerns the target T2, Retinoic acid receptor RXR-gamma (Homo sapiens) (UniProt P48443).
T2 sequence (whole entry): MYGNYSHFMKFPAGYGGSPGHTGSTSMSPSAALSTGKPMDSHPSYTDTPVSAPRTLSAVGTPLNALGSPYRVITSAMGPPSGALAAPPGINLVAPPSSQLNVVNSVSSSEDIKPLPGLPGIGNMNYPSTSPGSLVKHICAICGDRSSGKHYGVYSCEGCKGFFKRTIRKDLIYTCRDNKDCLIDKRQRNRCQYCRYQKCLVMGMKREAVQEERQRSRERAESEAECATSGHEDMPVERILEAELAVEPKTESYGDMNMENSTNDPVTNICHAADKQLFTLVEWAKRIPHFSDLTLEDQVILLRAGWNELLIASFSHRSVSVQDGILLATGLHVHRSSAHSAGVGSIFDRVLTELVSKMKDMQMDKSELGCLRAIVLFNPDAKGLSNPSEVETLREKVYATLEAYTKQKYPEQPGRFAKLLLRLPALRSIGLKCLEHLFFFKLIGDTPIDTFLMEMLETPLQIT
The experiment in a line: Competitive binding affinity to Gal4-fused full length RXRgamma LBD (unknown origin) transfected in HEK293T cells co-transfected with pG5luc reporter and Renilla-luc at 0.1 to 1 uM incubated for 12 hrs in presence of ATRA by luciferase reporter gene assay. The class given is cell-based. The following applies: dose 0.1-1 µM.

In experiment [4] the target is T2, Retinoic acid receptor RXR-gamma (Homo sapiens). The experiment in a line: Agonist activity at Gal4-fused full length RXRgamma LBD (unknown origin) transfected in HEK293T cells co-transfected with pG5luc reporter and Renilla-luc at 0.1 to 1 uM incubated for 12 hrs by luciferase reporter gene assay. The class given is cell-based. The conditions noted are these: dose 0.1-1 µM.

Experiment [5] addresses Peroxisome proliferator-activated receptor gamma (Homo sapiens) (UniProt P37231). The experiment in a line: Agonist activity at Gal4-fused full length PPARgamma LBD (unknown origin) transfected in HEK293T cells co-transfected with pG5luc reporter and Renilla-luc at 0.1 to 1 uM incubated for 12 hrs by luciferase reporter gene assay. The class given is cell-based. The following applies: dose 0.1-1 µM.

The target of experiment [6] is Oxysterols receptor LXR-alpha (Homo sapiens) (UniProt Q13133). Briefly: Agonist activity at Gal4-fused full length LXRalpha LBD (unknown origin) transfected in HEK293T cells co-transfected with pG5luc reporter and Renilla-luc at 0.1 to 1 uM incubated for 12 hrs by luciferase reporter gene assay. The class given is cell-based. The following applies: dose 0.1-1 µM.
Chain of Oxysterols receptor LXR-alpha (Homo sapiens) (Q13133 whole entry, the tested form may be a part): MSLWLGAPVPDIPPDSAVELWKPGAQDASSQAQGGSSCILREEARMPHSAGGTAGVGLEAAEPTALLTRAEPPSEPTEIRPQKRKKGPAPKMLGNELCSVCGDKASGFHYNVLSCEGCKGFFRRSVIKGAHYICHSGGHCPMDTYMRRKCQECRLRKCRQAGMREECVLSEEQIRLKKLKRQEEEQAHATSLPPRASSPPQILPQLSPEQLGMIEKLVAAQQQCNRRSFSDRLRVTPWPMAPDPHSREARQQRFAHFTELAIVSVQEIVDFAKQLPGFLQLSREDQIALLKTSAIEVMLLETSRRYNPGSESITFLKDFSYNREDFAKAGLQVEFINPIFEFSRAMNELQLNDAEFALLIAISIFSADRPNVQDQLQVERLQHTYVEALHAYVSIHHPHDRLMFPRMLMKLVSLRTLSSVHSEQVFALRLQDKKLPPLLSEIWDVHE
Experiment [7] deals with K562. The experiment in a line: Induction of cell differentiation in human K562 cells at 0.5 uM incubated for 6 days by CD11b staining based flow cytometric analysis. The class given is functional. The following applies: time 6.0 day.
For experiment [8], the system named is K562. Briefly: Induction of apoptosis in human K562 cells assessed as early apoptotic cells at 1 uM incubated for 24 hrs by Annexin V-FITC/PI staining based flow cytometric analysis (reference value: 0.91 %). The class given is functional.
Another experiment concerns HEK293T. Briefly: Agonist activity at full length RARalpha LBD R276E mutant (unknown origin) transfected in HEK293T cells co-transfected with pG5luc reporter and Renilla-luc at 1 uM incubated for 12 hrs by luciferase reporter gene assay. The conditions noted are these: Homo sapiens. The class given is cell-based.
A further experiment deals with HeLa. The experiment in a line: Induction of 3-flag-tagged PML-RARalpha R276E mutant (unknown origin) degradation transfected in human HeLa cells at 1 to 2 uM incubated for 24 hrs by Western blot analysis. The experiment is classed as cell-based. The following applies: dose 1-2 µM.
For experiment [9], the system named is NB-4. The experiment in a line: Induction of mitosis in human NB4 cells assessed as upregulation of pS10-histone expression at 2 uM measured after 3 hrs by Western blot analysis. The experiment is classed as functional, cell-based.
Experiment [10] relates to NB-4. Briefly: Cell cycle arrest in human NB4 cells assessed as accumulation of cells at G0/G1 phase at 0.5 uM incubated for 6 days for DAPI staining based flow cytometric analysis (reference value: 52 %). The class given is functional. The following applies: time 6 day.
The test system of experiment [11] is ATRA-resistant NB4-LR2. Briefly: Cell cycle arrest in human ATRA-resistant NB4-LR2 cells assessed as increase in PLK1 expression at 2 uM incubated for 3 to 24 hrs by Western blot analysis. The following applies: time 3-24 hrs. The class given is functional, cell-based.
The test system of experiment [12] is NB-4. Briefly: Induction of apoptosis in human NB4 cells assessed as viable cells at 1 uM incubated for 24 hrs by Annexin V-FITC/PI staining based flow cytometric analysis (reference value: 92.36 %). The conditions noted are these: read-out: Activity. The experiment is classed as functional.
Experiment [13] in a line: Induction of apoptosis in human ATRA-resistant NB4-LR2 cells assessed as necrotic cells at 1 uM incubated for 24 hrs by Annexin V-FITC/PI staining based flow cytometric analysis (reference value: 0.08 %). The experiment is classed as functional.
Experiment [14] has as its target T3, Retinoic acid receptor beta (Homo sapiens) (UniProt P10826).
T3 sequence (whole entry): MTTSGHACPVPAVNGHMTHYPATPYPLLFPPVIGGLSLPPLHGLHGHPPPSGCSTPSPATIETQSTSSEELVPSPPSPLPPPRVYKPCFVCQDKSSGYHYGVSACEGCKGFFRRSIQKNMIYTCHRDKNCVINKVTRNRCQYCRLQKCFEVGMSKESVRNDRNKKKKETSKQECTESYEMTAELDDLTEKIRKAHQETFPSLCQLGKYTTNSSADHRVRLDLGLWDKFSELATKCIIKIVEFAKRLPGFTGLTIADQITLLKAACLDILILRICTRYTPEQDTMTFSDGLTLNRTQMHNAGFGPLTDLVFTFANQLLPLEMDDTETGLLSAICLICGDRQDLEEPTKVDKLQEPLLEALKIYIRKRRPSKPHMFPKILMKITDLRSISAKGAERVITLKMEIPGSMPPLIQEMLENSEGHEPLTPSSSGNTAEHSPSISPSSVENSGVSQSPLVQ
The experiment in a line: Agonist activity at Gal4-fused full length RARbeta LBD (unknown origin) transfected in HEK293T cells co-transfected with pG5luc reporter and Renilla-luc at 0.1 to 1 uM incubated for 12 hrs by luciferase reporter gene assay. The following applies: dose 0.1-1 µM. The class given is cell-based.

Chain of Peroxisome proliferator-activated receptor gamma (Homo sapiens) (P37231 whole entry, the tested form may be a part): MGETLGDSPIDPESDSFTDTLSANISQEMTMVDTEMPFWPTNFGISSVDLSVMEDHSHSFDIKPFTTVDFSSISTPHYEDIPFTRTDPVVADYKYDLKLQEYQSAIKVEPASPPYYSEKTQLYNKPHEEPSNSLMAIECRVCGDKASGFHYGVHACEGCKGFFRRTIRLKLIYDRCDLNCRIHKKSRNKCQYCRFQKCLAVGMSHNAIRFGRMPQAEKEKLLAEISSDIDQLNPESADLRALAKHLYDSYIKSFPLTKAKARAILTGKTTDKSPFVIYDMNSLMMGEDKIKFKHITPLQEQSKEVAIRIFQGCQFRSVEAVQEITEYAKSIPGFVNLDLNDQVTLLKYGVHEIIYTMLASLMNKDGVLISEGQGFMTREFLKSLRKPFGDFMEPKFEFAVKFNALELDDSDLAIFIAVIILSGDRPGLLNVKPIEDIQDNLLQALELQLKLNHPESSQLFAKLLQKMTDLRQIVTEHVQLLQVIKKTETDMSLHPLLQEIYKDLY

On to `Cc1cc2c(cc1C(=O)/C(Br)=C/c1ccc(C(=O)O)cc1)C(C)(C)CCC2(C)C`, for which the Activity entry in experiment [1] was “Weak_effect”; with ATRA-resistant NB4-LR2 [2] it was “Minimal_effect”; in [3], “Not active; No Significant Competitive Effect On Atra Activation Observed”; in [4], “Minimal_effect”; in [5], “Weak_effect”; in [6], “Minimal_effect”. For the same molecule, the Activity is listed as 1% with K562 [8], 71% in the experiment with NB-4 [10], 1.44% in experiment [13] and “Minimal_effect” in [14]. Further, the result with K562 [7], in the experiment on HEK293T and in the experiment with HeLa was inactive. In addition, the result with NB-4 [9] and in the experiment on ATRA-resistant NB4-LR2 [11] was Active. Further, the viability at 1 µM in the experiment with NB-4 [12] is 59.8%.

In the case of `Cc1cc2c(cc1C(=O)/C(Br)=C\c1ccc(C(=O)O)cc1)C(C)(C)CCC2(C)C`, the Activity result was “Weak_effect” in experiment [1]; “Minimal_effect” in the experiment with ATRA-resistant NB4-LR2 [2]; “Not active; No Significant Competitive Effect On Atra Activation Observed” in experiment [3]; “Minimal_effect” in experiment [4]; “Weak_effect” in experiment [5]; “Minimal_effect” in [6]. Besides, the Activity is given as 0.71% in the experiment with K562 [8], 72% in the experiment on NB-4 [10], 0.49% in experiment [13] and “Minimal_effect” in experiment [14]. Moreover, the result in the experiment on K562 [7], in the experiment with HEK293T and with HeLa was inactive. For the same molecule, the outcome in the experiment on NB-4 [9] and with ATRA-resistant NB4-LR2 [11] was Active. Besides, the viability at 1 µM in the experiment with NB-4 [12] was found to be 76.7%.
